Measurements from patent US12509441B2, “Compounds used as kinase inhibitors and application thereof” (TYK MEDICINES (ZHENGZHOU), INC., priority 2020, dated 2025).
Like-named read-outs stand apart in the source and are kept apart here.

What was measured:
Type in all cases: cell-based
[1] = biological target: Ba/F3-FL-EGFR-A763-Y764 ins FQEA (Homo sapiens, UniProt P00533, INS763FQEA, cells depend on it); assay: Cell proliferation inhibitory activity test (CellTiter-Glo), EGFR exon 20 insertion mutation; conditions: 72 h, read-out: Ba/F3-FL-EGFR IC50 (nM) A763-Y764ins FQEA
[2] = system: H-1975 (EGFRL858R/T790M) cells; assay: Cell proliferation inhibitory activity test (WST-8) of related EGFR mutations
[3] = biological target: T1, Ba/F3-FL-EGFR-V769-D770 ins ASV (Homo sapiens, UniProt P00533, DUP767-769, cells depend on it); assay: Cell proliferation inhibitory activity test (CellTiter-Glo), EGFR exon 20 insertion mutation; conditions: 72 h, read-out: Ba/F3-FL-EGFR IC50 (nM) V769-D770ins ASV
T1 construct: Ba/F3-FL-EGFR IC50 (nM) V769-D770ins ASV; other: 72 h; class symbols; Ba/F3-FL-EGFR IC50 (nM) V769-D770ins ASV

[4] = biological target: T2, Ba/F3-FL-EGFR-V769-D770 ins ASV (Homo sapiens, UniProt P00533, cells depend on it, form not given); assay: as above; conditions: Ba/F3-FL-EGFR exon 20 insertion lines, see Table 6
T2 construct: rows headed: activity relative to the activity of TAK-788; Ba/F3-FL-EGFR

[5] = biological target: Ba/F3-FL-EGFR-D77-N771 ins SVD (Homo sapiens, UniProt P00533, DUP768-770, cells depend on it); assay: as above; conditions: 72 h, read-out: Ba/F3-FL-EGFR IC50 (nM) D77-N771ins SVD
[6] = biological target: Ba/F3 (EGFRdel19/L858R/C797S) (Homo sapiens, UniProt P00533, C797S/L858R, cells depend on it, form not given); assay: Cell proliferation inhibitory activity test (WST-8) of related EGFR mutations; conditions: 72 h, cell viability; read-out: IC 50 (nM) Ba/F3 (EGFRdel19/L858/797s)
[7] = system: PC9 (EGFRdel19) cells; assay: as above
[8] = biological target: Ba/F3-FL-EGFR-H773-V774 ins NPH (Homo sapiens, UniProt P00533, DUP771-773, cells depend on it); assay: Cell proliferation inhibitory activity test (CellTiter-Glo), EGFR exon 20 insertion mutation; conditions: 72 h, read-out: Ba/F3-FL-EGFR IC50 (nM) H773-V774ins NPH

GI50 ([1]; class symbols): < 5 nM
GI50 [1]: 1.8 nM
GI50 ([3]; class symbols): < 5 nM
GI50 [3]: 1.9 nM
activity relative to the activity of TAK-788 [4]: around 2 times
GI50 ([5]; class symbols): < 5 nM
GI50 [5]: 2.8 nM
IC50 ([7]; 72 h, cell viability, read-out: IC 50 (nM) PC-9 (EGFRdel19)): 6.61 nM
GI50 ([8]; class symbols): < 5 nM
GI50 [8]: 2.8 nM
Compound: C=CC(=O)Nc1cc(Nc2ncc(-c3nnc(C)o3)c(-c3cn(C)c4ccccc34)n2)c(OC)cc1N(C)C1[C@H]2CN(C)C[C@@H]12 (some centres unmarked) [Example 18]
cytostatic activity compared with osimertinib and TAK788 ([2]; H-1975 (EGFRL858/T790M)): not much different from osimertinib activity
IC50 ([2]; Homo sapiens, NCI-H1975, 72 h, cell viability, read-out: IC 50 (nM) H-1975 (EGFRL858/T790M)): 91.2 nM
GI50 [6]: 3980 nM
cytostatic activity compared with osimertinib and TAK788 ([7]; C-9 (EGFRdel19)): not much different from osimertinib activity
